The values that follow come from publication PMC7852560 (Neuropsychopharmacology, 2020).

For the experiment, the system named is 44 different receptors, ion channels and enzymes. As to conditions: 1 µM. Here is the method: The screen assesses the selectivity of the compound on a diverse panel of targets that includes GPCRs, drug transporters, ion channels, nuclear receptors, kinases, and other non-kinase enzymes. The screen employs radioligand binding or enzyme assays for these 44 targets.
For receptor assays, binding was calculated as percent inhibition of the binding of a radioactively labeled ligand specific for each target. For enzyme assays, the inhibition effect was calculated as percent inhibition of control enzyme activity. Tests were performed in duplicate, and results are averages of those two tests. See https://www.eurofinsdiscoveryservices.com.

As for `CCc1c(-c2nnc(Nc3ccccc3)o2)[nH]c2ccc(Cl)cc12` [ABM300, 5-(5-chloro-3-ethyl-1H-indol-2-yl)-N-phenyl-1,3,4-oxadiazol-2-amine], the “binding to SafetyScreen44 targets” value is “did not display any significant binding”.
